This note sets out measurements from ChEMBL document CHEMBL4190187, “Discovery of pyrazolopyrimidine derivatives as novel inhibitors of ataxia telangiectasia and rad3 related protein (ATR)” (Bioorg Med Chem Lett, 2017).

Experiment [1] deals with ALK tyrosine kinase receptor (Homo sapiens) (UniProt Q9UM73). Nature of the experiment: Inhibition of recombinant human ALK (1058 to end residues) at 1 uM using KKKSPGEYVNIEFG as substrate after 40 mins in presence of [gamma-33P]ATP by scintillation counting method.
Experiment [2] has as its target Tyrosine-protein kinase Blk (Homo sapiens) (UniProt P51451). Nature of the experiment: Inhibition of recombinant full-length human Blk at 1 uM using poly(Glu,Tyr) 4:1 as substrate after 40 mins in presence of [gamma-33P]ATP by scintillation counting method.
Experiment [3] deals with Calcium/calmodulin-dependent protein kinase type II subunit gamma (Homo sapiens) (UniProt Q13555). Nature of the experiment: Inhibition of recombinant human CAMK2gamma (1 to 330 residues) at 1 uM using […] after 40 mins in presence of [gamma-33P]ATP by scintillation counting method.
Experiment [4] concerns the target CDK18/Cyclin Y (Homo sapiens) (UniProt Q07002+Q8ND76). Nature of the experiment: Inhibition of recombinant full-length human CDK18/Cyclin Y at 1 uM using YRRAAVPPSPSLSRHSSPHQS(p)EDEEE as substrate after 40 mins in presence of [gamma-33P]ATP by scintillation counting method. In kind it is protein-complex assay.
The target of experiment [5] is CDK6/cyclin D3 (Homo sapiens) (UniProt P30281+Q00534). Put plainly: Inhibition of recombinant full-length human CDK6/Cyclin D3 at 1 uM using histone H1 as substrate after 40 mins in presence of [gamma-33P]ATP by scintillation counting method. In kind it is protein-complex assay.
Experiment [6] has as its system Epidermal growth factor receptor (Homo sapiens), P00533 [L858R,T790M]. Nature of the experiment: Inhibition of recombinant human EGFR T790M/L858R double mutant (696 to end residues) at 1 uM using GGMEDIYFEFMGGKKK as substrate after 40 mins in presence of [gamma-33P]ATP by scintillation counting method.
For experiment [7], the target named is Focal adhesion kinase 1 (Homo sapiens) (UniProt Q05397). Nature of the experiment: Inhibition of recombinant human FAK (411 to 686 residues) at 1 uM using EEEEYEEEEEEYYIIEEEEEEYEEEEEEYYEEEEEEKKKK as substrate after 40 mins in presence of [gamma-33P]ATP by scintillation counting method.
Experiment [8] concerns Macrophage colony-stimulating factor 1 receptor (Homo sapiens), P07333 [Y969C]. Put plainly: Inhibition of recombinant human Fms Y969C mutant (538 to end residues) at 1 uM using EEEEYEEEEEEYYIIEEEEEEYEEEEEEYYEEEEEEKKKK as substrate after 40 mins in presence of [gamma-33P]ATP by scintillation counting method.
Experiment [9] has as its target Homeodomain-interacting protein kinase 2 (Homo sapiens) (UniProt Q9H2X6). Put plainly: Inhibition of recombinant human HIPK2 (165 to 564 residues) at 1 uM using myelin basic protein as substrate after 40 mins in presence of [gamma-33P]ATP by scintillation counting method.
Experiment [10] deals with Homeodomain-interacting protein kinase 3 (Homo sapiens) (UniProt Q9H422). Put plainly: Inhibition of recombinant human HIPK3 (161 to 562 residues) at 1 uM using myelin basic protein as substrate after 40 mins in presence of [gamma-33P]ATP by scintillation counting method.
Experiment [11] concerns the target Tyrosine-protein kinase JAK3 (Homo sapiens) (UniProt P52333). Put plainly: Inhibition of recombinant human JAK3 (781 to end residues) at 1 uM using GGEEEEYFELVKKKK as substrate after 40 mins in presence of [gamma-33P]ATP by scintillation counting method.
For experiment [12], the target named is Mitogen-activated protein kinase 1 (Homo sapiens) (UniProt P28482). Put plainly: Inhibition of recombinant full-length human MAPK1 at 1 uM using myelin basic protein as substrate after 40 mins in presence of [gamma-33P]ATP by scintillation counting method.
Chain of Mitogen-activated protein kinase 1 (Homo sapiens) (P28482 whole entry): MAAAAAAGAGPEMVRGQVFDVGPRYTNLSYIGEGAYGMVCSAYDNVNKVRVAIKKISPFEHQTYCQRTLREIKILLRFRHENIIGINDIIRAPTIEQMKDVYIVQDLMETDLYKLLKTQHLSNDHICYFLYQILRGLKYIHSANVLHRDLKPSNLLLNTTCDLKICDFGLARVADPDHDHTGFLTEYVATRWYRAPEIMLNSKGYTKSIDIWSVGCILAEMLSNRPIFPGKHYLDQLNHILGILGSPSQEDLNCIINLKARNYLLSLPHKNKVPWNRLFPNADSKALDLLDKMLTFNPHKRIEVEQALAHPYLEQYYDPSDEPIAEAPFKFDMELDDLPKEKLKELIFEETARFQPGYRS
The target in experiment [13] is MAP kinase-activated protein kinase 2 (Homo sapiens) (UniProt P49137). Nature of the experiment: Inhibition of recombinant human MAPKAPK2 (46 to end residues) at 1 uM using KKLNRTLSVA as substrate after 40 mins in presence of [gamma-33P]ATP by scintillation counting method.
The target in experiment [14] is MAP kinase-activated protein kinase 3 (Homo sapiens) (UniProt Q16644). Put plainly: Inhibition of recombinant human MAPKAPK3 (2 to end residues) at 1 uM using KKLNRTLSVA as substrate after 40 mins in presence of [gamma-33P]ATP by scintillation counting method.
Chain of MAP kinase-activated protein kinase 3 (Homo sapiens) (Q16644 whole entry, looked up): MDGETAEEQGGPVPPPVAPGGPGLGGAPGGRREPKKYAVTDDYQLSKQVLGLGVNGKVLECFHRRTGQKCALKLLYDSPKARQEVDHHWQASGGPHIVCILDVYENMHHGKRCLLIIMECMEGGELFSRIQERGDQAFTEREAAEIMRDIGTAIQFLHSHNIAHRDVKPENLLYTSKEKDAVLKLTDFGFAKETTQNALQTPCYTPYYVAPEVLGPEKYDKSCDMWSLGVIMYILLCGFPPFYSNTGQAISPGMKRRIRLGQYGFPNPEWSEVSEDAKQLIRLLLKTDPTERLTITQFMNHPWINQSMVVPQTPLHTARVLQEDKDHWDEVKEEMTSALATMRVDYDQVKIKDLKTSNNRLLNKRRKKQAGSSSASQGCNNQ
Experiment [15] has as its target Serine/threonine-protein kinase MARK1 (Homo sapiens) (UniProt Q9P0L2). Put plainly: Inhibition of recombinant human MARK1 (2 to end residues) at 1 uM using KKKVSRSGLYRSPSMPENLNRPR as substrate after 40 mins in presence of [gamma-33P]ATP by scintillation counting method.
The target in experiment [16] is Muscle, skeletal receptor tyrosine-protein kinase (Homo sapiens) (UniProt O15146). Nature of the experiment: Inhibition of recombinant human MUSK (530 to end residues) at 1 uM using myelin basic protein as substrate after 40 mins in presence of [gamma-33P]ATP by scintillation counting method.
Experiment [17] has as its system Ribosomal protein S6 kinase beta-1 (Homo sapiens), P23443 [T412E]. Nature of the experiment: Inhibition of recombinant human p70S6K T412E mutant (1 to 421 residues) at 1 uM using KKRNRTLTV as substrate after 40 mins in presence of [gamma-33P]ATP by scintillation counting method.
The subject of experiment [18] is Platelet-derived growth factor receptor alpha (Homo sapiens), P16234 [V561D]. Put plainly: Inhibition of recombinant human PDGFRalpha V561D mutant (550 to end residues) at 1 uM using GGMEDIYFEFMGGKKK as substrate after 40 mins in presence of [gamma-33P]ATP by scintillation counting method.
The target in experiment [19] is Phosphatidylinositol 4-phosphate 3-kinase C2 domain-containing subunit alpha (Homo sapiens) (UniProt O00443). Put plainly: Inhibition of recombinant human PI3KC2alpha (299 to end residues) at 1 uM phosphatidylinositol/phosphatidylserine as substrate after 40 mins in presence of [gamma-33P]ATP by scintillation counting method.
The test system of experiment [20] is Proto-oncogene tyrosine-protein kinase receptor Ret (Homo sapiens), P07949 [V804M]. Nature of the experiment: Inhibition of recombinant human RET V804M mutant (658 to end residues) at 1 uM using KKKVSRSGLYRSPSMPENLNRPR as substrate after 40 mins in presence of [gamma-33P]ATP by scintillation counting method.
Chain of Proto-oncogene tyrosine-protein kinase receptor Ret (Homo sapiens), P07949 [V804M] (P07949 whole entry V804M): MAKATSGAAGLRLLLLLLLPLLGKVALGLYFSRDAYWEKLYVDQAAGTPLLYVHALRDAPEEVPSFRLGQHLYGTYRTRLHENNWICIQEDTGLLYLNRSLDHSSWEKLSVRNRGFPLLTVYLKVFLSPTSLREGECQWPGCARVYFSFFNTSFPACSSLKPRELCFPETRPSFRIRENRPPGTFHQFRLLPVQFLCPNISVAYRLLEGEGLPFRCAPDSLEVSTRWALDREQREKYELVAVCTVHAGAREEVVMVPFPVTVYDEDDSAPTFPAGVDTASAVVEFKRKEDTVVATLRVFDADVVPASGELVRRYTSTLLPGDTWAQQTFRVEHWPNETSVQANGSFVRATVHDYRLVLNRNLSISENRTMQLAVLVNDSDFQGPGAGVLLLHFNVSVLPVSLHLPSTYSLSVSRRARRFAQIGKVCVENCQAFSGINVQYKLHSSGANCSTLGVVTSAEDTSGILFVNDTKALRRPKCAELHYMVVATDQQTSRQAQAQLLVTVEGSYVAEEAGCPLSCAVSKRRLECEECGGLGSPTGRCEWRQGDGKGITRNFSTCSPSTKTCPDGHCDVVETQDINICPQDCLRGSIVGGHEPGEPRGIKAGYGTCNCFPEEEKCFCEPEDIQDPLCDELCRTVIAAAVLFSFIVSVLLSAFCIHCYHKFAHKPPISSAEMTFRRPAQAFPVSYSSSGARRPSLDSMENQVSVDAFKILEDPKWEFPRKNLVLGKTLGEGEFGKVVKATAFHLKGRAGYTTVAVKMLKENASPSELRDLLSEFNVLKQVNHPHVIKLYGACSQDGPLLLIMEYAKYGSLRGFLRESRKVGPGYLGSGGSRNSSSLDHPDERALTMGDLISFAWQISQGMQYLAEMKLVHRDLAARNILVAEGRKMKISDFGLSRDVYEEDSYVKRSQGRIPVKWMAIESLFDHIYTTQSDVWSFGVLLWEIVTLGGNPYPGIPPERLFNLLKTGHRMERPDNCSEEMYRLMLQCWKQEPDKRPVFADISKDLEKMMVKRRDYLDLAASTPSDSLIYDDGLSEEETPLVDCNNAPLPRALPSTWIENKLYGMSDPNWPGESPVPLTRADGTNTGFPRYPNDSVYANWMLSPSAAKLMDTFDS
For experiment [21], the system named is Mitogen-activated protein kinase 14 (Homo sapiens), Q16539 [T106M]. Put plainly: Inhibition of recombinant full-length human SAPK2a T106M mutant at 1 uM using myelin basic protein as substrate after 40 mins in presence of [gamma-33P]ATP by scintillation counting method.
Chain of Mitogen-activated protein kinase 14 (Homo sapiens), Q16539 [T106M] (Q16539 whole entry T106M): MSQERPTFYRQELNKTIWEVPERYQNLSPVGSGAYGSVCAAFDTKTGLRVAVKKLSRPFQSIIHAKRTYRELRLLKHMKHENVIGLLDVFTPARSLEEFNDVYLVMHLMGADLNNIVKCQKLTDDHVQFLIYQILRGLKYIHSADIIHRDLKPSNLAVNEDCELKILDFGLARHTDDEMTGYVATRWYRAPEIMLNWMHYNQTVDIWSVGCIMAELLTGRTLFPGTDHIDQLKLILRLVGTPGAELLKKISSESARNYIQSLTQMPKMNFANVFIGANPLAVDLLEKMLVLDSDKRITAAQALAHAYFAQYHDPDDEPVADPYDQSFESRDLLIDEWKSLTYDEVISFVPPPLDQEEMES
Experiment [22] addresses Serine/threonine-protein kinase 32C (Homo sapiens) (UniProt Q86UX6). Nature of the experiment: Inhibition of recombinant full-length human STK32C at 1 uM using casein as substrate after 120 mins in presence of [gamma-33P]ATP by scintillation counting method.
In experiment [23] the target is Mitogen-activated protein kinase kinase kinase 20 (Homo sapiens) (UniProt Q9NYL2). Put plainly: Inhibition of recombinant full-length human ZAK at 1 uM using myelin basic protein as substrate after 40 mins in presence of [gamma-33P]ATP by scintillation counting method.

Chain of Ribosomal protein S6 kinase beta-1 (Homo sapiens), P23443 [T412E] (P23443 whole entry T412E, looked up, the tested form may be a part): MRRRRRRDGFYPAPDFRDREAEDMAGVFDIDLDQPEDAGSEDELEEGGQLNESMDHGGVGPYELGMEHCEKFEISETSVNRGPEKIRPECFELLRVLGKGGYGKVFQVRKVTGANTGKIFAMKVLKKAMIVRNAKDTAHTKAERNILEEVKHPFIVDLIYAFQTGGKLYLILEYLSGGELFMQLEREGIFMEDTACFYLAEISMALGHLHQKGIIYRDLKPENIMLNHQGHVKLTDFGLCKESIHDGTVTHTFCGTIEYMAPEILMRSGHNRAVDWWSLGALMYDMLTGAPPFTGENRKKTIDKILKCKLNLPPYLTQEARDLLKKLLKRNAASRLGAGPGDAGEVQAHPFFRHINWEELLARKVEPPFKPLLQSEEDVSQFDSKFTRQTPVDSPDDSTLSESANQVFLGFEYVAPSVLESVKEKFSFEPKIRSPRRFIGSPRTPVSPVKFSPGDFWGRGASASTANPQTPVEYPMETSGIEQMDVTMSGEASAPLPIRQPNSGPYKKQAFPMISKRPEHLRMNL
Chain of Tyrosine-protein kinase JAK3 (Homo sapiens) (P52333 whole entry): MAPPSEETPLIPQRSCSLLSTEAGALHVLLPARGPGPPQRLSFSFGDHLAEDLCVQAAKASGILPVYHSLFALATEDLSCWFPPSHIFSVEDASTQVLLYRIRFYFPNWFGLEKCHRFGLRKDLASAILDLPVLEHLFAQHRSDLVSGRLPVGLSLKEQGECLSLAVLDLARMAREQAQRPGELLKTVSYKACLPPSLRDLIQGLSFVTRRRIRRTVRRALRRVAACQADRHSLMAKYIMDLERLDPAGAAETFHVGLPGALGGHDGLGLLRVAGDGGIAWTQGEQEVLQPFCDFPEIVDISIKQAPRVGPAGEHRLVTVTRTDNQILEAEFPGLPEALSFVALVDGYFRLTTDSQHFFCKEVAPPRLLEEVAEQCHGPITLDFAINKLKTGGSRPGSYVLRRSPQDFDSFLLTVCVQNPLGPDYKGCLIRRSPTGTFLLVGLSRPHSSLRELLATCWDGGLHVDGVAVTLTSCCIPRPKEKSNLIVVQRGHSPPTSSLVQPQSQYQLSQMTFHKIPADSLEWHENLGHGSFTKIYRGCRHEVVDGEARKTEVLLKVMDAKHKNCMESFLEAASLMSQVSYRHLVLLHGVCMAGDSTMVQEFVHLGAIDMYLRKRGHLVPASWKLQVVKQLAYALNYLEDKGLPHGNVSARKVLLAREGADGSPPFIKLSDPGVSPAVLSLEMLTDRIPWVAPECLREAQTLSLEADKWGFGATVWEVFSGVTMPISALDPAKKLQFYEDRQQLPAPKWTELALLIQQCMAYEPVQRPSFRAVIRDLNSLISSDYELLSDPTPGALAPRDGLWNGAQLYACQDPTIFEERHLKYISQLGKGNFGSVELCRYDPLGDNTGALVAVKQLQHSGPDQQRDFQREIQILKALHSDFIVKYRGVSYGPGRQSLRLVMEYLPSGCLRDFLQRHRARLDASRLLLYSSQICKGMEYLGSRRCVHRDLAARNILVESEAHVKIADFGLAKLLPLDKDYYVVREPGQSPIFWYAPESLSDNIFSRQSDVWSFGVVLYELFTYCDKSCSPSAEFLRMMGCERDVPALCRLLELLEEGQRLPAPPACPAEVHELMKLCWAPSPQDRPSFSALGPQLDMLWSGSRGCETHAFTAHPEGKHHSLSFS
Chain of Serine/threonine-protein kinase MARK1 (Homo sapiens) (Q9P0L2 whole entry, looked up): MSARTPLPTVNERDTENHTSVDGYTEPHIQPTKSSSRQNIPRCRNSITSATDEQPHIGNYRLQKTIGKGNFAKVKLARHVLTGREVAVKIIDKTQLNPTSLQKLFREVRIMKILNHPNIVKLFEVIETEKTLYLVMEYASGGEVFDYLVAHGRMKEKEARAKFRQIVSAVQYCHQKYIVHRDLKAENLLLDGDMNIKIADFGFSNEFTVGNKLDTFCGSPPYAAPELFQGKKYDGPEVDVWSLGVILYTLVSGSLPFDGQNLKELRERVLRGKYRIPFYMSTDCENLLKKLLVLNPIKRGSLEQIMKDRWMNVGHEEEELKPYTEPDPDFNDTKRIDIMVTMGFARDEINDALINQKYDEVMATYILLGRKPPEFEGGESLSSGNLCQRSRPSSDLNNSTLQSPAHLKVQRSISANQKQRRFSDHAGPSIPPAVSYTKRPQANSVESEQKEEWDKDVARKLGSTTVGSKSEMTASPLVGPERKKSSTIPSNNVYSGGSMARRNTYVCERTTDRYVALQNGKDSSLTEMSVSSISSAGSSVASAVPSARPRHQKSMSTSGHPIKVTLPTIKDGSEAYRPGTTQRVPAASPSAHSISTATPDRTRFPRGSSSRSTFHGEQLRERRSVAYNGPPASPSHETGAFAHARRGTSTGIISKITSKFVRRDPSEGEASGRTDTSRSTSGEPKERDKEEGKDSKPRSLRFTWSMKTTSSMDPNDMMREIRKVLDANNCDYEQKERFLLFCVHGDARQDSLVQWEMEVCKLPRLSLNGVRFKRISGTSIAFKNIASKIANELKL

With `CS(=O)(=O)c1ccc(-n2nc(-c3cnc4[nH]ccc4c3)c3c(N)ncnc32)cc1`, the inhibition was -4% in experiment [1]; 40% in experiment [2]; 6% in experiment [3]; 0% in experiment [4]; -6% in experiment [5]; 27% in [6]. In addition, the inhibition in experiment [7] amounted to 3%; in [8], 69%; in experiment [9], 3%; in [10], 4%; in experiment [11], 4%; in experiment [12] it was 2%. Besides, the inhibition was -4% in [13]; -1% in experiment [14]; -7% in experiment [15]; -2% in [16]; -2% in [17]; 66% in experiment [18]. For the same compound, the inhibition in experiment [19] is 23%; in [20], 14%; in experiment [21], 0%; in [22] it was 5%; in [23], 17%.

Usually inhibition stands for the change of the read-out against control, counted positive when it falls.
